For data set [1], the target named is ALK1/ACVRL1 (Homo sapiens, UniProt P37023). The data set is described as follows: Kinase assay (33P-ATP filter-binding), ALK1. It is filed as biochemical. On the procedure: (§1) The kinase assays were carried out briefly as follows. Substrate was prepared in Base Reaction Buffer (20 mM Hepes (pH 7.5), 10 mM MgCl2, 1 mM EGTA, 0.02% Brij35, 0.02 mg/ml BSA, 0.1 mM Na3VO4, 2 mM DTT, 1% DMSO). The indicated kinases was delivered into the substrate solution and allowed to gently mix. Next, the specific compound was delivered in DMSO into the kinase mixture by Acoustic technology (Echo550; nanoliter range), and allowed to incubate for 20 minutes at room temperature. Next, ^33P-ATP was delivered into the reaction mixture to initiate the reaction and allowed to incubate at room temperature. After 2 hours, the reactions were spotted onto P81 ion exchange paper and the kinase activity is detected by the filter-binding method.

For data set [2], the target named is T1, ALK2/ACVR1 (Homo sapiens, UniProt Q04771).
T1 sequence (Q04771 21-509): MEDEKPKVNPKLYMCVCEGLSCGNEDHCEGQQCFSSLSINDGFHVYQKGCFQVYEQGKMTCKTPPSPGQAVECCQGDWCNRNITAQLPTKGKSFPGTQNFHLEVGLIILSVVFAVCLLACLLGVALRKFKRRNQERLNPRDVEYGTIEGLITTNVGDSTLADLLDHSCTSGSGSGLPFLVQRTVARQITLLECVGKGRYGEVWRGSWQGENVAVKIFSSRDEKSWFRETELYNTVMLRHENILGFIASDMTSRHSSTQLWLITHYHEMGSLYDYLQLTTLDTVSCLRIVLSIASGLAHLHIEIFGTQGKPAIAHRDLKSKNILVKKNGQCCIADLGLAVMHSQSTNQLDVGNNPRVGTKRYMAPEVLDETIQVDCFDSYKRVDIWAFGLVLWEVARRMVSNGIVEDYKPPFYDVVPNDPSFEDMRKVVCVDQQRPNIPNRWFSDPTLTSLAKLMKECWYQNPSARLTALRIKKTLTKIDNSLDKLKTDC
Nature of the data set: Kinase assay (33P-ATP filter-binding), ALK2. In kind it is biochemical. On the procedure: as §1

Data set [3] has as its target T2, ALK2 (Q207D) (Homo sapiens, UniProt Q04771, Q207D).
T2 sequence (Q04771 21-509 Q207D): T1 sequence (Q04771 21-509) with Q187D
Nature of the data set: Kinase assay (33P-ATP filter-binding), ALK2 Q207D. To be noted: Q207D mutant, 20 mM; read-out: Kinase Selectivity ALK2 (Q207D, 20 mM). It is filed as biochemical. On the procedure:
as §1

Data set [4] addresses T3, ALK2 (R206H) (Homo sapiens, UniProt Q04771, R206H).
T3 sequence (Q04771 21-509 R206H): T1 sequence (Q04771 21-509) with R186H
Nature of the data set: Kinase assay (33P-ATP filter-binding), ALK2 R206H. In kind it is biochemical. Conditions: R206H mutant, 20 mM; read-out: Kinase Selectivity ALK2 (R206H, 20 mM). On the procedure: as §1

The target of data set [5] is ALK3/BMPR1A (Homo sapiens, UniProt P36894). The data set is described as follows: Kinase assay (33P-ATP filter-binding), ALK3. It is filed as biochemical. On the procedure: as §1
A short description of data set [6]: Intrinsic clearance, human. In kind it is in vitro ADME. To be noted: human.
Data set [7] in a line: Intrinsic clearance, mouse. It is filed as in vitro ADME. To be noted: mouse.
Data set [8] in a line: Protein binding, human. It is filed as in vitro ADME.
Data set [9] can be described thus: Protein binding, mouse. It is filed as in vitro ADME.
[10] abbreviates: read-out: Kinase Selectivity ALK1/ACVRL1.
Setting [11] is: 20 mM, read-out: Kinase Selectivity ALK2/ACVR1 (20 mM).
[12] abbreviates: 1 mM, read-out: Kinase Selectivity ALK3/BMPR1A (1 mM).
[13] abbreviates: CL-Hep, value in parentheses, read-out: Intrinsic Clearance Human (CL-Hep).
Setting [14] is: read-out: Intrinsic Clearance Human.
Where [15] appears, read: CL-Hep, value in parentheses, read-out: Intrinsic Clearance Mouse (CL-Hep).
The mark [16] stands for this setting: read-out: Intrinsic Clearance Mouse.

Numbering of substitutions follows the chain as printed. Like-named read-outs stand apart in the source and are kept apart here.

Sequence of ALK3/BMPR1A (P36894 24-532): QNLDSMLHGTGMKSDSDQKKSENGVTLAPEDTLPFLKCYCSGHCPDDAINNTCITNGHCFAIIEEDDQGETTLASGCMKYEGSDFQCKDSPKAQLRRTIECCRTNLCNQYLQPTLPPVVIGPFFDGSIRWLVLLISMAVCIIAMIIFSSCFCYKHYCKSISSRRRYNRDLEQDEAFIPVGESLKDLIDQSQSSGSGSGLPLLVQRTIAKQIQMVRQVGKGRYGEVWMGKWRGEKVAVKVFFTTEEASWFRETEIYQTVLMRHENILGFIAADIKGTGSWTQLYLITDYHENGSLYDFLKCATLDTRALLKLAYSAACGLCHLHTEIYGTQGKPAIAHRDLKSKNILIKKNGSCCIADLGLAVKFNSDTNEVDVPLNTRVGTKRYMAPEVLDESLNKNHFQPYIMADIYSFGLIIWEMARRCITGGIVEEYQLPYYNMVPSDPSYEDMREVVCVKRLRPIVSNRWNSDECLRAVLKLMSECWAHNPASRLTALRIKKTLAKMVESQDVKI
Sequence of ALK1/ACVRL1 (P37023 22-503): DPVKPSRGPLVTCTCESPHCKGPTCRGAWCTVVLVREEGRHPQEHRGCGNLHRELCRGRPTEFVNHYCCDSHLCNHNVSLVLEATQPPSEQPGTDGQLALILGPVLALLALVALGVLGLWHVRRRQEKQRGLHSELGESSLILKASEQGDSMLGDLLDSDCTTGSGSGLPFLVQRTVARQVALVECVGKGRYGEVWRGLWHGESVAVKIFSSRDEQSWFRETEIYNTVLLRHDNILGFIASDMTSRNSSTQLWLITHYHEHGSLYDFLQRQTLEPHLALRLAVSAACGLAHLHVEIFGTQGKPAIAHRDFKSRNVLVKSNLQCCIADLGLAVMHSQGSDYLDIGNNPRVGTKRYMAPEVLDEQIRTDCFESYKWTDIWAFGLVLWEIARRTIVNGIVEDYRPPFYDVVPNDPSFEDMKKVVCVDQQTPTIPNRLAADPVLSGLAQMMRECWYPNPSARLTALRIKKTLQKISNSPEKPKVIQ

In the case of `Cc1cc(-c2cnc3cc(-c4ccc(C5C[C@@H](C)N[C@@H](C)C5)cc4)ccn23)c2cc(F)cc(F)c2n1` (stereo partly shown) [Compound 1], the IC50 in data set [1] (setting [10]) is 880 nM; in [2] (setting [11]), 54.2 nM; in data set [3], 68.1 nM; in data set [4], 60.9 nM; in data set [5] (setting [12]), 28.5 nM.
With `Cc1cc(-c2cnc3cc(-c4ccc(N5CCCC6(CCCN6)C5)cc4)ccn23)c2cc(F)cc(F)c2n1` (stereo not shown) [Compound 2], the IC50 in [1] (setting [10]) was found to be 936 nM; in data set [2] (setting [11]), 147 nM; in [3] it was 114 nM; in data set [4] it was 128 nM; in [5] (setting [12]), 45 nM.
For the compound `Cc1cc(-c2cnc3cc(-c4ccc(N5CCC6(CCCNC6)CC5)cc4)ccn23)c2cc(F)cc(F)c2n1` [Compound 3], the IC50 turned out to be 10300 nM in data set [1] (setting [10]); 1090 nM in [2] (setting [11]); 999 nM in data set [3]; 1120 nM in data set [4]; 332 nM in data set [5] (setting [12]).
As to `Cc1cc(-c2cnc3cc(-c4ccc(N5CCNC6(CCC6)C5)cc4)ccn23)c2cc(F)cc(F)c2n1` [Compound 4], the IC50 in data set [1] (setting [10]) came out at 386 nM; in [2] (setting [11]), 29 nM; in [3], 24 nM; in [4] it was 25.5 nM; in [5] (setting [12]), 2.52 nM.
In the same order, the values of `Cc1cc(-c2cnc3cc(-c4ccc(N5CCC6(CCNCC6)C5)cc4)ccn23)c2cc(F)cc(F)c2n1` [Compound 5] are 35300 nM, 2370 nM, 1740 nM, 2510 nM and 1330 nM.
In the same order, the values of `Cc1cc(-c2cnc3cc(-c4ccc(N5CCC6(CCCNC6)C5)cc4)ccn23)c2cc(F)cc(F)c2n1` (stereo not shown) [Compound 6] are 3460 nM, 171 nM, 200 nM, 218 nM and 19.9 nM.
In the same order, the values of `Cc1cc(-c2cnc3cc(-c4ccc(N5CCC6(CCNC6)CC5)cc4)ccn23)c2cc(F)cc(F)c2n1` [Compound 7] are 5950 nM, 770 nM, 745 nM, 1070 nM and 434 nM.
As to `Cc1cc(-c2cnc3cc(-c4ccc(N5CCC6(CCC6)C5)cc4)ccn23)c2cc(F)cc(F)c2n1` [Compound 8], the IC50 is above 50000 nM in data set [1] (setting [10]); above 50000 nM in data set [2] (setting [11]); above 50000 nM in [3]; above 50000 nM in data set [4]; 43700 nM in data set [5] (setting [12]).
On to `Cc1cc(-c2cnc3cc(-c4ccc(N5CCC6(CCC6)CC5)cc4)ccn23)c2cc(F)cc(F)c2n1` [Compound 9], for which the IC50 was above 50000 nM in [1] (setting [10]); above 50000 nM in data set [2] (setting [11]); above 50000 nM in data set [3]; above 50000 nM in [4]; 40900 nM in data set [5] (setting [12]).
`Cc1cc(-c2cnc3cc(-c4ccc(C5COCCCN5)cc4)ccn23)c2cc(F)ccc2n1` (stereo not shown) [Compound 10]: the IC50 in data set [1] (setting [10]), in [2] (setting [11]), in [3], in [4] and in data set [5] (setting [12]) was below 5.1 nM each time. The CLint scaled in data set [6] (setting [13]) turned out to be 17.4 mL/min/kg; in [6] (setting [14]) it was 139 mL/min/kg; in data set [7] (setting [15]) it was 47.6 mL/min/kg; in [7] (setting [16]), 101 mL/min/kg. The “Protein Binding (% Free) Human” value in [8] was determined as 2.39 % Free. In addition, the “Protein Binding (% Free) Mouse” value in [9] stood at 1.91 % Free.
Turning to `Cc1cc(-c2cnc3cc(-c4ccc(C5COCCN5)cc4)ccn23)c2cc(F)ccc2n1` (stereo not shown) [Compound 11], the IC50 in data set [1] (setting [10]) was 23.5 nM; in [5] (setting [12]), below 5.1 nM. Also, the CLint scaled in data set [6] (setting [13]) is 17.4 mL/min/kg. Further, in [8], the “Protein Binding (% Free) Human” value was found to be 1.52 % Free. Besides, the “Protein Binding (% Free) Mouse” value in data set [9] is on record as 3.23 % Free.
Regarding `Cc1cc(-c2cnc3cc(-c4ccc(C5COCCCN5)cc4)ccn23)c2cc(F)cc(F)c2n1` (stereo not shown) [Compound 13], the IC50 was 16 nM in data set [1] (setting [10]); below 5.1 nM in [2] (setting [11]); below 5.1 nM in data set [3]; below 5.1 nM in [4]; below 5.1 nM in data set [5] (setting [12]). Also, the CLint scaled is 16.6 mL/min/kg in data set [6] (setting [13]), 97.2 mL/min/kg in data set [6] (setting [14]), below 32.9 mL/min/kg in data set [7] (setting [15]) and below 49.5 mL/min/kg in [7] (setting [16]). The “Protein Binding (% Free) Human” value in data set [8] worked out at 1.85 % Free. Also, the “Protein Binding (% Free) Mouse” value in [9] amounted to 2.3 % Free.
In the case of `Cc1cc(-c2cnc3cc(-c4ccc(C5COC(C)CN5)cc4)ccn23)c2ccccc2n1` (stereo not shown) [Compound 14], the IC50 in data set [1] (setting [10]), in data set [2] (setting [11]), in data set [3], in [4] and in data set [5] (setting [12]) was below 5.1 nM each time. In addition, the CLint scaled came out at 16.5 mL/min/kg in [6] (setting [13]), 93 mL/min/kg in data set [6] (setting [14]), 50.3 mL/min/kg in data set [7] (setting [15]) and 114 mL/min/kg in data set [7] (setting [16]). In data set [8], the “Protein Binding (% Free) Human” value is 0.76 % Free. The “Protein Binding (% Free) Mouse” value in [9] is 1.6 % Free.
Regarding `Cc1cc(-c2cnc3cc(-c4ccc(C5COCCN5)cc4)ccn23)c2ccccc2n1` (stereo not shown) [Compound 21], the IC50 in data set [1] (setting [10]) and in [5] (setting [12]) was below 5.1 nM each time. Further, in data set [6] (setting [13]), the CLint scaled worked out at 17.5 mL/min/kg. Further, in [8], the “Protein Binding (% Free) Human” value came to 3.05 % Free. Also, the “Protein Binding (% Free) Mouse” value in data set [9] was 6.24 % Free.
On to `c1cc(-c2cnc3cc(-c4ccc(C5CNCCN5)cc4)ccn23)ccn1` (stereo not shown) [Compound 30], for which the IC50 came to 447 nM in data set [1] (setting [10]); 68.8 nM in data set [2] (setting [11]); 35 nM in data set [3]; 96.7 nM in data set [4]; 55.1 nM in data set [5] (setting [12]).
As to `c1ncc2scc(-c3cnc4cc(-c5ccc(C6CNCCN6)cc5)ccn34)c2n1` (stereo not shown) [Compound 35], the IC50 in data set [1] (setting [10]) worked out at 14200 nM; in data set [2] (setting [11]) it was 157 nM; in data set [3], 65.8 nM; in [4] it was 214 nM; in data set [5] (setting [12]) it was 9450 nM.
As to `O=S(=O)(F)Oc1ccc(-c2cnc3cc(-c4ccc(N5CCOCC5)cc4)ccn23)c2ccccc12` [Compound 38], the IC50 is above 30000 nM in data set [1] (Kinase Selectivity ALK1/ACVRL1); above 30000 nM in data set [2]; 10300 nM in data set [3]; 15000 nM in [4]; 23100 nM in data set [5].

For the origin of these results see patent US10745400B2, “Inhibition of BMP signaling, compounds, compositions and uses thereof” (Vanderbilt University, priority 2018, dated 2020).
